The source made the active and inactive calls. No cut-off for these calls is given here.
What was measured:
MCF/WT [1] = assay: Induction of apoptosis in human drug-sensitive MCF/WT cells assessed as cleavage of caspase 9 at 0.3 uM by immunoblot analysis; assay type: functional, cell-based
[2] = Cell cycle arrest in human drug-sensitive MCF/WT cells assessed as accumulation at sub G0/G1 phase at 0.3 uM after 48 hrs by propidium fluorescence flow cytometry; assay type: functional, cell-based
[3] = molecular target: Transcription factor Jun (Homo sapiens) (UniProt P05412); assay: Reduction in induction of c-Jun phosphorylation in human multidrug resistant MCF/ADR cells at 0.3 uM after 48 hrs by immunoblot analysis in presence of rottlerin; assay type: cell-based
Transcription factor Jun (Homo sapiens), sequence (P05412 whole entry): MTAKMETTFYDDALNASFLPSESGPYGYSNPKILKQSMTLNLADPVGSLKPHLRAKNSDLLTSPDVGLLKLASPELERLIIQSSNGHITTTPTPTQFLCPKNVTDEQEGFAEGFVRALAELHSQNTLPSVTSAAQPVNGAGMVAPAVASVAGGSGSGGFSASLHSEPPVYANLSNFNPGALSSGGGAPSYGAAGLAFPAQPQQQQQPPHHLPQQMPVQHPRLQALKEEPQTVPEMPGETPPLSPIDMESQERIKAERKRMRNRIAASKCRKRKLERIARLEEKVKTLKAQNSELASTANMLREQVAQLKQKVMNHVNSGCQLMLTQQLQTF

MCF/ADR [4] = assay: Reduction in induction of apoptosis in human multidrug resistant MCF/ADR cells assessed as suppression of PARP cleavage at 0.3 uM after 48 hrs by immunoblot analysis in presence of rottlerin; assay type: functional, cell-based
[5] = Cell cycle arrest in human drug-sensitive MCF/WT cells assessed as accumulation at G0/G1 phase at 0.3 uM after 72 hrs by propidium fluorescence flow cytometry; assay type: functional, cell-based
MCF/WT [6] = assay: Induction of apoptosis in human drug-sensitive MCF/WT cells assessed as cleavage of lamin A at 0.3 uM by immunoblot analysis; assay type: functional, cell-based
MCF/WT [7] = assay: Induction of apoptosis in human drug-sensitive MCF/WT cells assessed as activation of caspase 6 at 0.3 uM by immunoblot analysis; assay type: functional, cell-based
MCF/WT [8] = assay: Increase in Bcl-x/s levels in human drug-sensitive MCF/WT cells at 0.3 uM by immunoblot analysis; assay type: functional, cell-based
MCF/ADR [9] = assay: Blockade of apoptosis induction in human multidrug resistant MCF/ADR cells at 0.3 uM after 48 hrs in presence of SP600125; assay type: functional, cell-based
[10] = molecular target: Bcl-2-like protein 1 (Homo sapiens) (UniProt Q07817); assay: Inhibition of induction of Bcl-x/s phosphorylation in human multidrug resistant MCF/ADR cells at 0.3 uM after 48 hrs in presence of rottlerin; assay type: functional, cell-based
Bcl-2-like protein 1 (Homo sapiens), sequence (Q07817 whole entry): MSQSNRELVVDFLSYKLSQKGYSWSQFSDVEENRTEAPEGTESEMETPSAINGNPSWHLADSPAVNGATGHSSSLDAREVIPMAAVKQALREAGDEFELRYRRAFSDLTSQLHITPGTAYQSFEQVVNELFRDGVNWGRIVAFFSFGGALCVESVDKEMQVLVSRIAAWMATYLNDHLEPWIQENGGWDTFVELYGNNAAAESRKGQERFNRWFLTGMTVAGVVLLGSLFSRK

[11] = Cell cycle arrest in human multidrug resistant MCF/ADR cells assessed as accumulation at G2/M phase at 0.3 uM after 48 hrs by propidium fluorescence flow cytometry; assay type: functional, cell-based
[12] = Cell cycle arrest in human multidrug resistant MCF/ADR cells assessed as accumulation at G0/G1 phase at 0.3 uM after 72 hrs by propidium fluorescence flow cytometry; assay type: functional, cell-based
MCF/ADR [13] = assay: Induction of apoptosis in human multidrug resistant MCF/ADR cells assessed as accumulation of PARP at 0.3 uM after 72 hrs by immunoblot analysis; assay type: functional, cell-based
MCF/ADR [14] = assay: Reduction of […] cleavage in human multidrug resistant MCF/ADR cells transfected with c-Jun siRNA at 0.3 uM after 48 hrs by immunoblot analysis; assay type: functional, cell-based
[15] = Inhibition of nuclear protein kinase 1
[16] = Cell cycle arrest in human drug-sensitive MCF/WT cells assessed as accumulation at sub G0/G1 phase at 0.3 uM after 72 hrs by propidium fluorescence flow cytometry; assay type: functional, cell-based
MCF/WT [17] = assay: Induction of apoptosis in human drug sensitive MCF/WT cells assessed as annexin V binding to phosphatidylserine at 0.3 uM after 6 hrs; assay type: functional, cell-based
MCF/ADR [18] = assay: Induction of apoptosis in human multidrug resistant MCF/ADR cells assessed as activation of caspase 6 at 0.3 uM by immunoblot analysis; assay type: functional, cell-based
MCF/ADR [19] = assay: Reduction in induction of apoptosis in SP600125 pretreated human multidrug resistant MCF/ADR cells assessed as reduction of cleavage of PARP at 0.3 uM after 48 hrs by immunoblot analysis; assay type: functional, cell-based
MCF/WT [20] = assay: Increase in Bcl-x/l levels in human drug-sensitive MCF/WT cells at 0.3 uM by immunoblot analysis; assay type: functional, cell-based
[21] = Cell cycle arrest in human multidrug resistant MCF/ADR cells assessed as accumulation at S phase at 0.3 uM after 72 hrs by propidium fluorescence flow cytometry; assay type: functional, cell-based
[22] = molecular target: Transcription factor Jun (Homo sapiens) (UniProt P05412); assay: Reduction in induction of non phosphorylated form of c-Jun in SP600125 pretreated human multidrug resistant MCF/ADR cells at 0.3 uM after 48 hrs by immunoblot analysis; assay type: cell-based
MCF/WT [23] = assay: Induction of apoptosis in human drug-sensitive MCF/WT cells assessed as activation of caspase 7 at 0.3 uM by immunoblot analysis; assay type: functional, cell-based
MCF/ADR [24] = assay: Induction of apoptosis in human multidrug resistant MCF/ADR cells assessed as activation of caspase 7 at 0.3 uM by immunoblot analysis; assay type: functional, cell-based
MCF/ADR [25] = assay: Reduction of lamin A cleavage in human multidrug resistant MCF/ADR cells transfected with c-Jun siRNA at 0.3 uM after 48 hrs by immunoblot analysis; assay type: functional, cell-based
[26] = molecular target: c-Jun N-terminal kinase, JNK (Homo sapiens) (UniProt P45983+P53779+P45984); assay: Inhibition of induction of JNK phosphorylation in human multidrug resistant MCF/ADR cells at 0.3 uM after 48 hrs by immunocytochemical analysis in presence of rottlerin; assay type: cell-based
MCF/ADR [27] = assay: Increase in p21CIP accumulation in human multidrug resistant MCF/ADR cells at 0.3 uM after 48 hrs by immunoblot analysis; assay type: functional, cell-based
MCF/ADR [28] = assay: Cytocidal effect in human multidrug resistant MCF/ADR cells assessed as decrease in number of viable cells at 0.1 uM after 72 hrs by MTT colorimetric assay; assay type: functional, cell-based
MCF/ADR [29] = assay: Inhibition of induction of apoptosis in human multidrug resistant MCF/ADR cells assessed as inhibition of cleavage of PARP at 0.3 uM after 48 hrs by immunoblot analysis in presence of pan-specific inhibitor; assay type: functional, cell-based
[30] = molecular target: Transcription factor Jun (Homo sapiens) (UniProt P05412); assay: Reduction in induction of c-Jun phosphorylation in human multidrug resistant MCF/ADR cells transfected with c-Jun siRNA at 0.3 uM after 48 hrs by immunoblot analysis; assay type: cell-based
MCF/ADR [31] = assay: Induction of apoptosis in human multidrug resistant MCF/ADR cells assessed as cleavage of lamin A at 0.3 uM by immunoblot analysis; assay type: functional, cell-based
[32] = molecular target: Transcription factor Jun (Homo sapiens) (UniProt P05412); assay: Reduction in induction of c-Jun expression in human multidrug resistant MCF/ADR cells at 0.3 uM after 48 hrs by immunoblot analysis in presence of pan-specific caspase inhibitor; assay type: cell-based
[33] = Cell cycle arrest in human drug-sensitive MCF/WT cells assessed as accumulation at S phase at 0.3 uM after 48 hrs by propidium fluorescence flow cytometry; assay type: functional, cell-based
[34] = Cell cycle arrest in human multidrug resistant MCF/ADR cells assessed as accumulation at S phase at 0.3 uM after 48 hrs by propidium fluorescence flow cytometry; assay type: functional, cell-based
MCF/WT [35] = assay: Increase in wild-type full length p53 accumulation in human drug-sensitive MCF/WT cells at 0.3 uM by immunoblot analysis; assay type: functional, cell-based
MCF/ADR [36] = assay: Increase in Bcl-x/l levels in human multidrug resistant MCF/ADR cells at 0.3 uM by immunoblot analysis; assay type: functional, cell-based
MCF/ADR [37] = assay: Cytocidal effect in human multidrug resistant MCF/ADR cells assessed as decrease in number of viable cells at 30 nM after 6 days by MTT colorimetric assay; assay type: functional, cell-based
MCF/WT [38] = assay: Cytostatic effect in human drug sensitive MCF/WT cells assessed as slight increase in number of viable cells at 0.1 uM after 1 hr measured after 72 hrs in absence of drug by MTT colorimetric assay; assay type: functional, cell-based
[39] = Inhibition of PKA

NC(=O)c1cn([C@@H]2O[C@H](CO)[C@@H](O)[C@H]2O)c2ncnc(N)c12 [SANGIVAMYCIN]
Activity (MCF/WT [1]): inactive
Activity [2]: 3%
Activity [3]: Active
Activity (MCF/ADR [4]): Active
Activity [5]: 57%
Activity (MCF/WT [6]): inactive
Activity (MCF/WT [7]): inactive
Activity (MCF/WT [8]): Active
Activity (MCF/ADR [9]): Active
Activity [10]: Active
Activity [11]: 17%
Activity [12]: 17%
Activity (MCF/ADR [13]): Active
Activity (MCF/ADR [14]): inactive
Ki [15]: 200 µM
Activity [16]: 4%
Activity (MCF/WT [17]): inactive
Activity (MCF/ADR [18]): Active
Activity (MCF/ADR [19]): Active
Activity (MCF/WT [20]): Active
Activity [21]: 25%
Activity [22]: Active
Activity (MCF/WT [23]): inactive
Activity (MCF/ADR [24]): Active
Activity (MCF/ADR [25]): inactive
Activity [26]: Active
Activity (MCF/ADR [27]): inactive
Activity (MCF/ADR [28]): Active
Activity (MCF/ADR [29]): Active
Activity [30]: Active
Activity (MCF/ADR [31]): Active
Activity [32]: inactive
Activity [33]: 9%
Activity [34]: 23%
Activity (MCF/WT [35]): Active
Activity (MCF/ADR [36]): Active
Activity (MCF/ADR [37]): Active
Activity (MCF/WT [38]): Active
IC50 [39]: 50 µM

Reference: ChEMBL document CHEMBL1156449, “The nucleoside analog sangivamycin induces apoptotic cell death in breast carcinoma MCF7/adriamycin-resistant cells via protein kinase Cdelta and JNK activation” (J Biol Chem, 2007)
